Data set [1] can be described thus: in vitro. The note with it: human.
Data set [2] relates to PfPI3K. The following applies: read-out: IC50 PfPI3K; in vitro; cited from earlier work.
The target in data set [3] is PI4Kβ (PF3D7_0509800) (Plasmodium falciparum, UniProt Q8I406). Put plainly: Kinobead chemoproteomic competition binding, Pf3D7 ABS extract. The note with it: read-out: Kd app for PI4Kβ; Kinobeads, P. falciparum ABS extract.
For data set [4], the system named is P. berghei ANKA GFP-Luc-SMcon sporozoites. Description: P. berghei liver stage assay. The format is cell-based. The note with it: Plasmodium berghei, HepG2, read-out: IC50, inhibition of parasite invasion of HepG2 liver cells (liver stage).
Data set [5] addresses T1, protein kinase 2 (PK2; PF3D7_1238900) (Plasmodium falciparum, UniProt Q8I534).
T1 sequence (Q8I534 1-509): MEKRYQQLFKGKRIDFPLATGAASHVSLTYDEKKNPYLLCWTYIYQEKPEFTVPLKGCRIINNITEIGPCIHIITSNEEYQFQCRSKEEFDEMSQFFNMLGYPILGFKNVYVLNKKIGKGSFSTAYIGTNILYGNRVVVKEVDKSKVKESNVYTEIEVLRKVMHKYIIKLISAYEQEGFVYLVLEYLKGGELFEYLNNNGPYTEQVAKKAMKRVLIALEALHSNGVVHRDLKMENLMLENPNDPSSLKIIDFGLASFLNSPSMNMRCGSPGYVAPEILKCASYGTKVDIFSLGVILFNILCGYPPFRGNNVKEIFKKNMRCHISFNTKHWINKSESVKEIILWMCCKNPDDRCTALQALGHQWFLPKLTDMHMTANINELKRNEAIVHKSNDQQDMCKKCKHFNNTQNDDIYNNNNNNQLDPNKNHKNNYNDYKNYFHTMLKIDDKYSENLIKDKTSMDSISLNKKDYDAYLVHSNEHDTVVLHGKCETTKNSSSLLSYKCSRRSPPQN
Put plainly: Kinobead chemoproteomic competition binding, Pf3D7 ABS extract. The note with it: read-out: Kd app for PK2; Kinobeads, P. falciparum ABS extract.

Data set [6] concerns Pf3D7 trophozoites. Put plainly: Metabolomic perturbation profiling by LC-MS. Type of data set: cell-based, Plasmodium falciparum. The note with it: 10-fold the IC50 for 2.5 hours, vs no-drug control.
The subject of data set [7] is PfNF54 stage V gametocytes. Put plainly: Standard membrane feeding assay. Details: species or system Plasmodium falciparum. The note with it: 2 μM, stage V gametocytes incubated 48 hours before feeding; mean ±SD.
Data set [8] concerns PfNF54 stage IV/V gametocytes. Description: Late-stage gametocytocidal luciferase reporter assay. The note with it: Plasmodium falciparum, 48 h, read-out: IC50, viability of late-stage gametocytes. Type of data set: cell-based.
Data set [9] relates to Pf3D7. Put plainly: P. falciparum NSG mouse model of infection, 4-day test. Type of data set: in vivo, Plasmodium falciparum. The following applies: day 7, single daily oral dose for four days, NSG mice.
For data set [10], the system named is PfNF54 stages II/III gametocytes. Description: Early-stage gametocytocidal luciferase reporter assay. The format is cell-based. The note with it: Plasmodium falciparum, read-out: inhibition of early-stage gametocytes.
For data set [11], the target named is T2, cdc2-related protein kinase 5 (CRK5; PF3D7_0615500) (Plasmodium falciparum, UniProt C6KSZ6).
T2 sequence (C6KSZ6 1-705): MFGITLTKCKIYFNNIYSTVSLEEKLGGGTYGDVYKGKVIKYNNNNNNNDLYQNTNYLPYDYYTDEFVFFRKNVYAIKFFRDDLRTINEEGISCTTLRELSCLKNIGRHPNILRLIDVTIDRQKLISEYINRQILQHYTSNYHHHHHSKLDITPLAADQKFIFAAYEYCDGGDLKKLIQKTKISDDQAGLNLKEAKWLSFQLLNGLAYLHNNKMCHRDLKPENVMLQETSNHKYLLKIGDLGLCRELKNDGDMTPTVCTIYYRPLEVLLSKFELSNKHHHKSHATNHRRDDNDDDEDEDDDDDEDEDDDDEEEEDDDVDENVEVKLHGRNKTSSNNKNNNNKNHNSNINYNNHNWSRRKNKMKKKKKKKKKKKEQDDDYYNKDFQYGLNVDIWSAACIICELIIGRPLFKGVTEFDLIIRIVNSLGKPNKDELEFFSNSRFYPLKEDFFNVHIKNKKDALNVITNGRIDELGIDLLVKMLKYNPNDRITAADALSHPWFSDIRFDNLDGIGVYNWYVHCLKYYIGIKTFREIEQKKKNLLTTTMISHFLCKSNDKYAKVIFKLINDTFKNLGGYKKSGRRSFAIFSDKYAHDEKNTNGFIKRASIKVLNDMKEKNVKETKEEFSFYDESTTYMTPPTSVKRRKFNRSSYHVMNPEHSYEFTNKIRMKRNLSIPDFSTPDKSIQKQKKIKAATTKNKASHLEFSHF
Put plainly: Kinobead chemoproteomic competition binding, Pf3D7 ABS extract. The note with it: read-out: Kd app for CRK5; Kinobeads, P. falciparum ABS extract.

Data set [12] is described as follows: Whole-blood pharmacokinetics in NSG mouse efficacy study, LC-MS/MS. The format is in vivo, NSG mice.
The test system of data set [13] is PI3K (PF3D7_0515300) cKD parasite line. Put plainly: Susceptibility assay with PI3K conditional knockdown line. The note with it: no aTc vs high aTc.
Data set [14] has as its target casein kinase 1 (CK1; PF3D7_1136500) (Plasmodium falciparum, UniProt Q8IHZ9). Description: Kinobead chemoproteomic competition binding, Pf3D7 ABS extract.
Data set [15] relates to control cell line expressing an aptamer-regulatable fluorescent protein. Description: Susceptibility assay with aptamer-regulatable control line. The note with it: low vs high aTc.
In data set [16] the test system is PKG (PF3D7_1436600) cKD parasite line. Description: Susceptibility assay with PKG conditional knockdown line. The note with it: low aTc (2 nM) vs high aTc.
In data set [17] the target is PI3K (Vps34; PF3D7_0515300) (Plasmodium falciparum, UniProt Q8I3V5). Description: Lipid-Kinobead chemoproteomic competition binding, Pf3D7 ABS extract. The following applies: read-out: Kd app for PI3K; Lipid-Kinobeads, N = 1.
PI3K (Vps34; PF3D7_0515300), sequence (Q8I3V5 1-2133): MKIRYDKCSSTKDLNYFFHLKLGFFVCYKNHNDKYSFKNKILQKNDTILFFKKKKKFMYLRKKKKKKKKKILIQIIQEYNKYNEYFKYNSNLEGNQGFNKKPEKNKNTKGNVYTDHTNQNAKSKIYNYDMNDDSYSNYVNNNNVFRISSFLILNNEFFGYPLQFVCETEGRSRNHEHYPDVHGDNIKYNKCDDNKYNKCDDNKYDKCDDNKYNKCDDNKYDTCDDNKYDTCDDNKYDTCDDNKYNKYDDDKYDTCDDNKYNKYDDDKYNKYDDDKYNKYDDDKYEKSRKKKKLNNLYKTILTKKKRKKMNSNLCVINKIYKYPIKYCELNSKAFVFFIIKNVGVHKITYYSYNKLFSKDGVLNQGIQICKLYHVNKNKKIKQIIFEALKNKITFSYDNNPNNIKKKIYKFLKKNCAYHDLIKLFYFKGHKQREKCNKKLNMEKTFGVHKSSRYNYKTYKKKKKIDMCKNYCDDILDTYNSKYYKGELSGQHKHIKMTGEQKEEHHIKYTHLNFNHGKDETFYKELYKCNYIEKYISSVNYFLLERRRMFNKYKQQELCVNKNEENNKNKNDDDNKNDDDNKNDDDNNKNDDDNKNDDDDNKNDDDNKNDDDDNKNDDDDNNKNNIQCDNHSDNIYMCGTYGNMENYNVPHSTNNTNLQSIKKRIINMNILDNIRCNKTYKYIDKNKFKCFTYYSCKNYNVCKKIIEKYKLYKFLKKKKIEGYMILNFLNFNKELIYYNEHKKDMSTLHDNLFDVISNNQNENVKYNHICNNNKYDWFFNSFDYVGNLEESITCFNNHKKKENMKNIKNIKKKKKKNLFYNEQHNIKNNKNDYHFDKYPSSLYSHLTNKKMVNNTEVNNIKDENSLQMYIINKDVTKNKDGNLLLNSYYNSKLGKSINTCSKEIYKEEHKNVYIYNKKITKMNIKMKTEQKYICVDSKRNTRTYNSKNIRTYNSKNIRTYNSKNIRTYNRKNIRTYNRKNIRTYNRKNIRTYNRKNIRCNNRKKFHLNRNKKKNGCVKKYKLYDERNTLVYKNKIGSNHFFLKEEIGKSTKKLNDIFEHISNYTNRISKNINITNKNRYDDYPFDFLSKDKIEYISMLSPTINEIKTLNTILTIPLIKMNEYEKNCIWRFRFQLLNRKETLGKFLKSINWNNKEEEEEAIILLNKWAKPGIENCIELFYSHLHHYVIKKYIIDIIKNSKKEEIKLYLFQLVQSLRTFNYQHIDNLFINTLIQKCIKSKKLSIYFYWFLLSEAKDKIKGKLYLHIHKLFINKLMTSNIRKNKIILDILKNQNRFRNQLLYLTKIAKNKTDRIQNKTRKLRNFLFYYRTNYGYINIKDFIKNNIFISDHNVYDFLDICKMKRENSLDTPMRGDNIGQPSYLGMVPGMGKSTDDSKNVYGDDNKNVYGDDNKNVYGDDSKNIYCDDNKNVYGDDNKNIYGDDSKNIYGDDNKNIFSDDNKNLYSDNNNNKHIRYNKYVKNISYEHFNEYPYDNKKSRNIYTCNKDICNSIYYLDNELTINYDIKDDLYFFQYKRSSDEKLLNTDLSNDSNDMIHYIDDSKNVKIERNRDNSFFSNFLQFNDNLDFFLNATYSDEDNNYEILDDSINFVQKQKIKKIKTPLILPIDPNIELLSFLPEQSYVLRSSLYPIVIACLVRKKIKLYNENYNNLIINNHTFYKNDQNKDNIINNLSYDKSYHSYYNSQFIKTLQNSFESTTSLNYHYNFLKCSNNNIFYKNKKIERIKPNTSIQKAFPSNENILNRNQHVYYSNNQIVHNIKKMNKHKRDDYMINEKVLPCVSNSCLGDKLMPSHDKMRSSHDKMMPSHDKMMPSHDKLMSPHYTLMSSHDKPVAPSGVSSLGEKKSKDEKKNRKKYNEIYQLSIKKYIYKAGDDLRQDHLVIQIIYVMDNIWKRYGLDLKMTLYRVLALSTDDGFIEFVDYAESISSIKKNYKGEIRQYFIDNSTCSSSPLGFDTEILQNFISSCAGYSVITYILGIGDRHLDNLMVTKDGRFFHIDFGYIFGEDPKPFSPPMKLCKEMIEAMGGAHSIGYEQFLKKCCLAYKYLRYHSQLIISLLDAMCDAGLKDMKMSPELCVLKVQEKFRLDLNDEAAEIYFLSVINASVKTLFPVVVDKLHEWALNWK
Data set [18] deals with male gamete formation from stage V gametocytes. Description: Male gamete exflagellation inhibition assay. The following applies: Plasmodium falciparum, 48 h, read-out: inhibition of male gamete formation (EIA). The format is cell-based.
A short description of data set [19]: Tolerability. The format is in vivo. The note with it: 10 mg/kg oral once daily, both animals.
The test system of data set [20] is PfNF54 strain. Put plainly: In vitro ABS activity against PfNF54 strain. The format is cell-based. The note with it: Plasmodium falciparum, read-out: in vitro IC50 against PfNF54 strain.

Values joined by “and” are separate entries in the source; they are usually repeats but may differ in a detail not shown here. Equal entries are not always repeated.

The term IC50 denotes the midpoint of a concentration-inhibition curve. As a reminder, the inhibition is the relative decrease from the control value, in per cent.

PI4Kβ (PF3D7_0509800), sequence (Q8I406 1-1559): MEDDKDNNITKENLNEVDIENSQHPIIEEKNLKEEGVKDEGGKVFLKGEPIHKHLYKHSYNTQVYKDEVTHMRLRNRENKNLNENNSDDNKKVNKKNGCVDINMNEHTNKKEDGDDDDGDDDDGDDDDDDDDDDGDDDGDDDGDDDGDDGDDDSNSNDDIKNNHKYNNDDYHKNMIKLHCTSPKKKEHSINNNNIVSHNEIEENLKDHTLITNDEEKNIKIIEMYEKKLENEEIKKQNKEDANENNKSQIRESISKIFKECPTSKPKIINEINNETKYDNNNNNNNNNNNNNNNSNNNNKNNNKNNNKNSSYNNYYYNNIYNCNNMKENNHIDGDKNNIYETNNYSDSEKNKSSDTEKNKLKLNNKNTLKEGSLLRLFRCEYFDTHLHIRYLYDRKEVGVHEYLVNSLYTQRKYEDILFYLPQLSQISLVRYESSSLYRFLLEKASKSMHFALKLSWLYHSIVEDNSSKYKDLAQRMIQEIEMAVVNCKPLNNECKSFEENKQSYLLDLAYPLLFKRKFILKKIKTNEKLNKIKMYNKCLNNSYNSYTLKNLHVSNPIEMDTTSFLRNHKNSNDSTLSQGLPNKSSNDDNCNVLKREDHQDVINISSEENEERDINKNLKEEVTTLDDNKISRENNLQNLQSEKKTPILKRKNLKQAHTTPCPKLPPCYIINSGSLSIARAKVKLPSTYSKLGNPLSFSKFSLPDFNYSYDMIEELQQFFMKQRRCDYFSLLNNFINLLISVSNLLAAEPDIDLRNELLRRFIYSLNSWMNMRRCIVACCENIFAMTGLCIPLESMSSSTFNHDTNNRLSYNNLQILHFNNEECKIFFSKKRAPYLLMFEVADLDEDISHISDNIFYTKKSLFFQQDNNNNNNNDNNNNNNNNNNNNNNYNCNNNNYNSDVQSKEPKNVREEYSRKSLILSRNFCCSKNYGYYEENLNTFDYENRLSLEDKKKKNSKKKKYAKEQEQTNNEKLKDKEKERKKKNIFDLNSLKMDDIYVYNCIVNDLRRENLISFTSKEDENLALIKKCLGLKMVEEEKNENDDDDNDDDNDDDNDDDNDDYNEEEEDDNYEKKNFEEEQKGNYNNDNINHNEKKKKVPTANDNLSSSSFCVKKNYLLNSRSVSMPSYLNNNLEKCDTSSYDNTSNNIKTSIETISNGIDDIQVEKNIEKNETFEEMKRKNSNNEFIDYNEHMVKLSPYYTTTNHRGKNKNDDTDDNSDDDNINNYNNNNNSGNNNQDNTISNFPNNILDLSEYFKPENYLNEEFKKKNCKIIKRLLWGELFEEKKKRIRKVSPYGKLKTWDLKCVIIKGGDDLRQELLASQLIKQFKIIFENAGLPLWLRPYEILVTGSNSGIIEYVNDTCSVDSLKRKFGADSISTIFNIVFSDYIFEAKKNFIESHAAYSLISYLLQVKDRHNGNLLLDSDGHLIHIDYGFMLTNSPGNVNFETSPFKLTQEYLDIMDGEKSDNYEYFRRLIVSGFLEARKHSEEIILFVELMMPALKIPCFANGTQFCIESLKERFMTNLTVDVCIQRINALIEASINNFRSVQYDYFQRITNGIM
casein kinase 1 (CK1; PF3D7_1136500), sequence (Q8IHZ9 whole entry): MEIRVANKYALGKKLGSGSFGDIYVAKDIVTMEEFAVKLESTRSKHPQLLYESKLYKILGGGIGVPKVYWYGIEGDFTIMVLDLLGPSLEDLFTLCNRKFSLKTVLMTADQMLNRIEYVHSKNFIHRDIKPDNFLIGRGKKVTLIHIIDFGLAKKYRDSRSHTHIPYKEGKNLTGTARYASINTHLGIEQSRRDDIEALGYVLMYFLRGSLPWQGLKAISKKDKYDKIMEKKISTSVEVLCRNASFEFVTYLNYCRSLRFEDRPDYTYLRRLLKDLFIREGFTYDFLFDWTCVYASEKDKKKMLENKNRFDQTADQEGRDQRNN

`COc1ccc(C[C@H](N)C(=O)N[C@H]2[C@@H](O)[C@H](n3cnc4c(N(C)C)ncnc43)O[C@@H]2CO)cc1` [Puromycin]: in [1], the IC50 worked out at 588 ± 3 nM.
As to `Nc1ccc(-c2ccc3ncc4ccc(=O)n(-c5cccc(C(F)(F)F)c5)c4c3c2)cn1` [Torin-2], in data set [2], the IC50 is 0.6 nM.
On to `CC(C)n1nc(-c2ccc3oc(N)nc3c2)c2c(N)ncnc21` [sapanisertib], for which the Kd in data set [3] is at most 50 nM; in [5], below 1000 nM; in data set [11] it was below 1000 nM; in [14], below 1000 nM; in data set [17], ≤ 50 nM and 50 nM. Also, the half-maximal inhibitory concentration (IC50) in data set [4] was 134 nM; in data set [8], 538 nM; in data set [20], 58 nM and 0.018 µg/mL. The “effect on hemoglobin-derived peptide levels” value in [6] is “disruption and reduction”. In addition, the “transmission-reducing activity (TRA), reduction in mean oocyst formation” value in [7] came to 54%. Further, the “ED90 (dose reducing parasitemia by 90% vs untreated control)” value in [9] was 0.88 mg/kg. Also, in [10], the inhibition at 5 µM came out at 30%. For the same molecule, the “whole-blood exposure level (below lowest limit of quantification)” value in [12] (0.05 mg/kg oral) and in data set [12] (0.1 mg/kg oral) was below 1 ng/mL each time. Further, the “differential susceptibility on PI3K knockdown” value in [13] is “did not reveal differential susceptibility”. The “differential susceptibility, aptamer-regulatable control line” value in data set [15] is “did not reveal differential susceptibility”. In addition, the “differential susceptibility on PKG knockdown” value in data set [16] was “did not reveal differential susceptibility”. In [18], the inhibition at 2 µM is 89%. Moreover, the “weight loss (humane end point reached before day 7)” value in data set [19] is reported as at least 15%.

Values taken from publication PMC9951552 (Science translational medicine, 2022).
